# Test results taken from US20220081412A1, “QUINOLINYL-PYRAZINE-CARBOXAMIDE COMPOUNDS AND USES THEREOF” (The Regents of the University of Michigan, priority 2018, published 2022).
# Tested on: cancer cells
# Experiment: Proteomics study (up- and downregulated proteins)
# Type: cell-based
# Details: for Hydroxymethylglutaryl-CoA synthase, cytoplasmic (HMGCS1) protein: proteomics
# Description: Proteomics provide a comprehensive understanding of mechanisms that are responsible for the cytotoxicity of anticancer drugs, and based on the expression of protein helps in identification of drug targets (see, Wang, Y.; et al., Met Based Drugs. 2008, 1-9). One of the disadvantages of proteomics is membrane-bound proteins due to their poor solubility and low abundance, are disproportionally represented in proteome profiles (see, Smith, C. Nature, 2004, 428, 225-231). Identification of target proteins utilizing proteomics technique coupled with mass spectrometry is an evolving technology platform that has the potential to identify novel proteins involved in key biological processes in cells. There are two mass spectrometry-based methods currently used for protein profiling. The use of high-resolution two-dimensional electrophoresis to separate proteins from different samples, followed by selection and staining of differentially expressed proteins to be identified by mass spectrometry is the more established method. In the second approach isotope coded affinity tag (ICAT) reagents are utilized to differentially label proteins from two different complex mixtures, that are then digested to yield labeled peptides. The labeled mixtures are then combined, the peptides separated by multidimensional liquid chromatography and analyzed by tandem mass spectrometry. In this method, complexity of the mixtures omitting the non-cysteine residues is reduced as here the cysteine residues of proteins get covalently attached to the ICAT reagent. Proteomics coupled with bioinformatics process the raw mass spectral data into protein data (see, Yu, L. R.; Essentials of Genomic and Personalized Medicine 2010, 89-96). The most critical software programs take peptide mapping and/or tandem MS results and determine the protein or peptide sequence that are most closely related to the experimental data. One of the more intriguing MS-based proteomic techniques is to identify the proteins which are overexpressed thus aids in identification of the target protein of the given drug. There are several examples reported in literature about successful application of Bru-seq and proteomics for identification of mechanism of action of drugs.
# It is the second step in the mevalonate-dependent isoprenoid biosynthesis pathway. HMG-CoA is an intermediate in both cholesterol synthesis and ketogenesis. Thus, here the proteomics results are in accordance with the Bru-seq results, implying “cholesterol biosynthesis pathway” as key pathway activated by these series of compounds.
# Among its related pathways are regulation of cholesterol biosynthesis by SREBP (SREBF) and terpenoid backbone biosynthesis.
# [1] = protein: 28S ribosomal protein S16, mitochondrial, downregulated
# [2] = protein: 28S ribosomal protein S17, mitochondrial, downregulated
# [3] = protein: 28S ribosomal protein S18b, mitochondrial, downregulated
# [4] = protein: 28S ribosomal protein S22, mitochondrial, downregulated
# [5] = protein: 28S ribosomal protein S25, mitochondrial, downregulated
# [6] = protein: 40S ribosomal protein S8, upregulated
# [7] = protein: 40S ribosomal protein S26, upregulated
# [8] = protein: 40S ribosomal protein S30, upregulated
# [9] = protein: 60S ribosomal protein L19, upregulated
# [10] = protein: 60S ribosomal protein L27a, upregulated
# [11] = protein: 60S ribosomal protein L36a-like, upregulated
# [12] = protein: 60S ribosomal protein L37, upregulated
# [13] = protein: Aconitate hydratase, mitochondrial, downregulated
# [14] = protein: Acyl-CoA desaturase, upregulated
# [15] = protein: Alanine aminotransferase 2, upregulated
# [16] = protein: Aldehyde dehydrogenase X, downregulated
# [17] = protein: Apolipoprotein A-I, upregulated
# [18] = protein: Apolipoprotein B-100, upregulated
# [19] = protein: Apolipoprotein C-III, upregulated
# [20] = protein: Beta-2-glycoprotein 1, upregulated
# [21] = protein: Bleomycin hydrolase, upregulated
# [22] = protein: Constitutive coactivator of peroxisome proliferator-activated receptor gamma, downregulated
# [23] = protein: Copper-transporting ATPase 2, upregulated
# [24] = protein: D-dopachrome decarboxylase, downregulated
# [25] = protein: DNA topoisomerase 2-alpha, downregulated
# [26] = protein: Deoxyribonuclease-2-alpha, upregulated
# [27] = protein: Dermcidin, upregulated
# [28] = protein: Diphthine methyltransferase, upregulated
# [29] = protein: E3 ubiquitin-protein ligase TRIM69, upregulated
# [30] = protein: Elongation factor G, mitochondrial, downregulated
# [31] = protein: FAST kinase domain-containing protein 5, mitochondrial, downregulated
# [32] = protein: Filamin-C, upregulated
# [33] = protein: GH3 domain-containing protein, upregulated
# [34] = protein: Histone H1.2, downregulated
# [35] = protein: Hydroxymethylglutaryl-CoA synthase, cytoplasmic, upregulated
# [36] = protein: Interleukin-36 beta, downregulated
# [37] = protein: Iron-responsive element-binding protein 2, upregulated
# [38] = protein: Keratin, type I cytoskeletal 20, downregulated
# [39] = protein: Kinesin-like protein KIF27, upregulated
# [40] = protein: LanC-like protein 2, downregulated
# [41] = protein: MBT domain-containing protein 1, downregulated
# [42] = protein: Mixed lineage kinase domain-like protein, upregulated
# [43] = protein: Muellerian-inhibiting factor, upregulated
# [44] = protein: NADH dehydrogenase [ubiquinone] 1 alpha subcomplex subunit 6, downregulated
# [45] = protein: NADH dehydrogenase [ubiquinone] iron-sulfur protein 4, mitochondrial, downregulated
# [46] = protein: NADH-ubiquinone oxidoreductase 75 kDa subunit, mitochondrial, downregulated
# [47] = protein: Nucleolar transcription factor 1, downregulated
# [48] = protein: Phosphatidylserine synthase 1, upregulated
# [49] = protein: Proliferation marker protein Ki-67, downregulated
# [50] = protein: Protein FAM83H, downregulated
# [51] = protein: Protein FAM177A1, upregulated
# [52] = protein: Protein PIMREG, upregulated
# [53] = protein: Protein cornichon homolog 4, upregulated
# [54] = protein: Putative ankyrin repeat domain-containing protein 31, upregulated
# [55] = protein: RNA-binding motif protein, X chromosome, downregulated
# [56] = protein: Scaffold attachment factor B1, downregulated
# [57] = protein: Scaffold attachment factor B2, downregulated
# [58] = protein: Sequestosome-1, upregulated
# [59] = protein: Serine/threonine-protein kinase PLK4, upregulated
# [60] = protein: Squalene synthase, upregulated
# [61] = protein: Transcription elongation factor 1 homolog, downregulated
structure (smiles),measurement,setting,value
"CCN(CC)CCCC(C)Nc1cnc(C(=O)Nc2cc(C)cc3cccnc23)cn1 (stereo not drawn) [J4, 5-((5-(diethylamino)pentan-2-yl)amino)-N-(6-methylquinolin-8-yl)pyrazine-2-carboxamide]",Abundance ratio,[1],0.403
same,Abundance ratio (log2),[1],−1.31
same,Abundance ratio,[2],0.452
same,Abundance ratio (log2),[2],−1.15
same,Abundance ratio,[3],0.337
same,Abundance ratio (log2),[3],−1.57
same,Abundance ratio,[4],0.432
same,Abundance ratio (log2),[4],−1.21
same,Abundance ratio,[5],0.402
same,Abundance ratio (log2),[5],−1.32
same,Abundance ratio,[6],1.777
same,Abundance ratio (log2),[6],0.83
same,Abundance ratio,[7],1.717
same,Abundance ratio (log2),[7],0.78
same,Abundance ratio,[8],1.649
same,Abundance ratio (log2),[8],0.72
same,Abundance ratio,[9],1.761
same,Abundance ratio (log2),[9],0.82
same,Abundance ratio,[10],1.713
same,Abundance ratio (log2),[10],0.78
same,Abundance ratio,[11],1.623
same,Abundance ratio (log2),[11],0.7
same,Abundance ratio,[12],1.808
same,Abundance ratio (log2),[12],0.85
same,Abundance ratio,[13],0.489
same,Abundance ratio (log2),[13],−1.03
same,Abundance ratio,[14],2.148
same,Abundance ratio (log2),[14],1.1
same,Abundance ratio,[15],1.616
same,Abundance ratio (log2),[15],0.69
same,Abundance ratio,[16],0.278
same,Abundance ratio (log2),[16],−1.85
same,Abundance ratio,[17],1.891
same,Abundance ratio (log2),[17],0.92
same,Abundance ratio,[18],2.151
same,Abundance ratio (log2),[18],1.1
same,Abundance ratio,[19],2.072
same,Abundance ratio (log2),[19],1.05
same,Abundance ratio,[20],1.622
same,Abundance ratio (log2),[20],0.7
same,Abundance ratio,[21],1.845
same,Abundance ratio (log2),[21],0.88
same,Abundance ratio,[22],0.419
same,Abundance ratio (log2),[22],−1.25
same,Abundance ratio,[23],1.807
same,Abundance ratio (log2),[23],0.85
same,Abundance ratio,[24],0.487
same,Abundance ratio (log2),[24],−1.04
same,Abundance ratio,[25],0.381
same,Abundance ratio (log2),[25],−1.39
same,Abundance ratio,[26],1.649
same,Abundance ratio (log2),[26],0.72
same,Abundance ratio,[27],2.454
same,Abundance ratio (log2),[27],1.3
same,Abundance ratio,[28],1.633
same,Abundance ratio (log2),[28],0.71
same,Abundance ratio,[29],1.906
same,Abundance ratio (log2),[29],0.93
same,Abundance ratio,[30],0.245
same,Abundance ratio (log2),[30],−2.03
same,Abundance ratio,[31],0.382
same,Abundance ratio (log2),[31],−1.39
same,Abundance ratio,[32],2.026
same,Abundance ratio (log2),[32],1.02
same,Abundance ratio,[33],1.742
same,Abundance ratio (log2),[33],0.8
same,Abundance ratio,[34],0.462
same,Abundance ratio (log2),[34],−1.11
same,Abundance ratio,[35],1.944
same,Abundance ratio (log2),[35],0.96
same,Abundance ratio,[36],0.462
same,Abundance ratio (log2),[36],−1.12
same,Abundance ratio,[37],2.136
same,Abundance ratio (log2),[37],1.09
same,Abundance ratio,[38],0.439
same,Abundance ratio (log2),[38],−1.19
same,Abundance ratio,[39],1.89
same,Abundance ratio (log2),[39],0.92
same,Abundance ratio,[40],0.327
same,Abundance ratio (log2),[40],−1.61
same,Abundance ratio,"protein: Lumican, upregulated",1.612
same,Abundance ratio (log2),"protein: Lumican, upregulated",0.69
same,Abundance ratio,[41],0.233
same,Abundance ratio (log2),[41],−2.1
same,Abundance ratio,[42],1.861
same,Abundance ratio (log2),[42],0.9
same,Abundance ratio,[43],1.824
same,Abundance ratio (log2),[43],0.87
same,Abundance ratio,[44],0.473
same,Abundance ratio (log2),[44],−1.08
same,Abundance ratio,[45],0.468
same,Abundance ratio (log2),[45],−1.1
same,Abundance ratio,[46],0.488
same,Abundance ratio (log2),[46],−1.03
same,Abundance ratio,[47],0.484
same,Abundance ratio (log2),[47],−1.05
same,Abundance ratio,[48],1.946
same,Abundance ratio (log2),[48],0.96
same,Abundance ratio,[49],0.474
same,Abundance ratio (log2),[49],−1.08
same,Abundance ratio,[50],0.46
same,Abundance ratio (log2),[50],−1.12
same,Abundance ratio,[51],3.085
same,Abundance ratio (log2),[51],1.63
same,Abundance ratio,[52],1.711
same,Abundance ratio (log2),[52],0.77
same,Abundance ratio,[53],1.656
same,Abundance ratio (log2),[53],0.73
same,Abundance ratio,[54],1.786
same,Abundance ratio (log2),[54],0.84
same,Abundance ratio,[55],0.441
same,Abundance ratio (log2),[55],−1.18
same,Abundance ratio,[56],0.401
same,Abundance ratio (log2),[56],−1.32
same,Abundance ratio,[57],0.405
same,Abundance ratio (log2),[57],−1.3
same,Abundance ratio,[58],1.69
same,Abundance ratio (log2),[58],0.76
same,Abundance ratio,[59],3.158
same,Abundance ratio (log2),[59],1.66
same,Abundance ratio,[60],1.597
same,Abundance ratio (log2),[60],0.68
same,Abundance ratio,[61],0.364
same,Abundance ratio (log2),[61],−1.46
same,"Hydroxymethylglutaryl-CoA synthase, cytoplasmic (HMGCS1) protein",,upregulation
same,"Hydroxymethylglutaryl-CoA synthase, cytoplasmic (HMGCS1) protein",listed as JR-1-235,upregulated
